Source: US20220259593A1, “CONTROL OF MAMMALIAN GENE DOSAGE USING CRISPR” (The Regents of the University of California, priority 2019, published 2022)

System: K562 CRISPRi cells
Assay: Perturb-seq pooled growth measurement (sgRNA counts, growth phenotype γ, relative activity)
Assay type: cell-based, human
Details: sequencing read counts; for Perturb-seq pooled growth sgRNA counts, d5: 5 days of growth (day seven after transduction); for Perturb-seq pooled growth sgRNA counts, d10: 10 days of growth (day twelve after transduction); for Perturb-seq pooled growth sgRNA counts, T0: T0 = day two after transduction
Outline: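 CRISPRi K562 cells from the Perturb-seq transduced pool; 500,000-cell samples taken days two, seven and twelve post-transduction. sgRNA amplicons from genomic DNA sequenced; growth phenotypes from normalized sgRNA abundances at days seven and twelve versus day two. Relative activity assigned from day seven (five days' growth).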

| Substance | Perturb-seq pooled growth sgRNA counts, d5 | Perturb-seq pooled growth sgRNA counts, d10 | Perturb-seq pooled growth sgRNA counts, T0 |
| --- | --- | --- | --- |
| HSPA9_−_137911079.23-P1P2_02: sgRNA targeting HSPA9, GGAGTTGCGCGATGCGGTGG, SEQ ID NO: 133 (listed as DNA, chemistry not fully specified) | 1727 | 1872 | 4345 |
| HSPA9_−_137911079.23-P1P2_04: sgRNA targeting HSPA9, GGAGCTGCGCAATGCGGTGG, SEQ ID NO: 135 (listed as DNA, chemistry not fully specified) | 9346 | 10829 | 6754 |
| HSPA9_−_137911079.23-P1P2_07: sgRNA targeting HSPA9, GGAGCTGCGGGATGCGGTGG, SEQ ID NO: 132 (listed as DNA, chemistry not fully specified) | 1513 | 1463 | 5941 |
| HSPA9_−_137911079.23-P1P2_08: sgRNA targeting HSPA9, GGAGCTGCTCGATGCGGTGG, SEQ ID NO: 134 (listed as DNA, chemistry not fully specified) | 2803 | 2726 | 3137 |
| HSPE1_+_198365089.23-P1P2_00: sgRNA targeting HSPE1, GGAGACTCGCAGTCCGGCCC, SEQ ID NO: 9 (listed as DNA, chemistry not fully specified) | 2348 | 1179 | 6813 |
| HSPE1_+_198365089.23-P1P2_01: sgRNA targeting HSPE1, GGAGACACGCAGTCCGGCCC, SEQ ID NO: 65 (listed as DNA, chemistry not fully specified) | 4228 | 2663 | 9669 |
| HSPE1_+_198365089.23-P1P2_02: sgRNA targeting HSPE1, GGAGACTGGCAGTCCGGCCC, SEQ ID NO: 67 (listed as DNA, chemistry not fully specified) | 5731 | 4437 | 7969 |
| HSPE1_+_198365089.23-P1P2_03: sgRNA targeting HSPE1, GGTGACTCGCAGTCCGGCCC, SEQ ID NO: 66 (listed as DNA, chemistry not fully specified) | 3034 | 2279 | 7473 |
| HSPE1_+_198365089.23-P1P2_14: sgRNA targeting HSPE1, GGAGACTCGCAGTCCTGCCC, SEQ ID NO: 68 (listed as DNA, chemistry not fully specified) | 6501 | 6498 | 4808 |
| MTOR_+_11322547.23-P1P2_00: sgRNA targeting MTOR, GGGCAGGGGGCCTGAAGCGG, SEQ ID NO: 146 (listed as DNA, chemistry not fully specified) | 6328 | 3144 | 17632 |
| MTOR_+_11322547.23-P1P2_05: sgRNA targeting MTOR, GGGCAGGGGGCTTGAAGCGG, SEQ ID NO: 148 (listed as DNA, chemistry not fully specified) | 4083 | 3324 | 5595 |
| MTOR_+_11322547.23-P1P2_06: sgRNA targeting MTOR, GGGCAGGGGGGCTGAAGCGG, SEQ ID NO: 149 (listed as DNA, chemistry not fully specified) | 3358 | 3174 | 4142 |
| MTOR_+_11322547.23-P1P2_07: sgRNA targeting MTOR, GGGCAGGGGGTCTGAAGCGG, SEQ ID NO: 147 (listed as DNA, chemistry not fully specified) | 3183 | 1899 | 6761 |
| MTOR_+_11322547.23-P1P2_10: sgRNA targeting MTOR, GGGCAGGGGGCCTGAAGCAG, SEQ ID NO: 150 (listed as DNA, chemistry not fully specified) | 7332 | 7827 | 7076 |
| POLR1D_+_28196016.23-P1_00: sgRNA targeting POLR1D, GGGAAGCAAGGACCGACCGA, SEQ ID NO: 11 (listed as DNA, chemistry not fully specified) | 3429 | 1496 | 11671 |
| POLR1D_+_28196016.23-P1_01: sgRNA targeting POLR1D, GGGAAGCCAGGACCGACCGA, SEQ ID NO: 76 (listed as DNA, chemistry not fully specified) | 4460 | 2528 | 12679 |
| POLR1D_+_28196016.23-P1_03: sgRNA targeting POLR1D, GGTAAGCAAGGACCGACCGA, SEQ ID NO: 75 (listed as DNA, chemistry not fully specified) | 2365 | 933 | 10266 |
| POLR1D_+_28196016.23-P1_07: sgRNA targeting POLR1D, GGGAAGCAAGGAGCGACCGA, SEQ ID NO: 77 (listed as DNA, chemistry not fully specified) | 16283 | 16285 | 15589 |
| POLR1D_+_28196016.23-P1_08: sgRNA targeting POLR1D, GGGAAGCAGGGACCGACCGA, SEQ ID NO: 74 (listed as DNA, chemistry not fully specified) | 4205 | 1986 | 16414 |
| POLR2H_+_184081251.23-P1P2_00: sgRNA targeting POLR2H, GGGGCCACGAGAGCAGCAGA, SEQ ID NO: 28 (listed as DNA, chemistry not fully specified) | 947 | 1103 | 9498 |
| POLR2H_+_184081251.23-P1P2_07: sgRNA targeting POLR2H, GGGGCCACGAGTGCAGCAGA, SEQ ID NO: 118 (listed as DNA, chemistry not fully specified) | 6381 | 8153 | 4472 |
| POLR2H_+_184081251.23-P1P2_08: sgRNA targeting POLR2H, GGGGCCACGCGAGCAGCAGA, SEQ ID NO: 116 (listed as DNA, chemistry not fully specified) | 3492 | 3869 | 6134 |
| POLR2H_+_184081251.23-P1P2_11: sgRNA targeting POLR2H, GGGGCCACGAGAGCAGCGGA, SEQ ID NO: 115 (listed as DNA, chemistry not fully specified) | 898 | 1144 | 5900 |
| POLR2H_+_184081251.23-P1P2_12: sgRNA targeting POLR2H, GGGGCCACGAGAGCAGGAGA, SEQ ID NO: 117 (listed as DNA, chemistry not fully specified) | 4854 | 5996 | 5334 |
| RAN_+_131356438.23-P1P2_00: sgRNA targeting RAN, GGCGGTCGCTGCGCTTAGGG, SEQ ID NO: 69 (listed as DNA, chemistry not fully specified) | 7598 | 8936 | 5444 |
| RAN_+_131356438.23-P1P2_02: sgRNA targeting RAN, GGCGGCCGCTGCGCTTAGGG, SEQ ID NO: 70 (listed as DNA, chemistry not fully specified) | 15046 | 15358 | 11853 |
| RAN_+_131356438.23-P1P2_03: sgRNA targeting RAN, GGGGGTCGCTGCGCTTAGGG, SEQ ID NO: 71 (listed as DNA, chemistry not fully specified) | 6698 | 6816 | 5056 |
| RAN_+_131356438.23-P1P2_04: sgRNA targeting RAN, GGCGGTCGCGGCGCTTAGGG, SEQ ID NO: 72 (listed as DNA, chemistry not fully specified) | 11409 | 14870 | 6001 |
| RAN_+_131356438.23-P1P2_12: sgRNA targeting RAN, GGCGGTCGCTGCGCTTAGGT, SEQ ID NO: 73 (listed as DNA, chemistry not fully specified) | 16172 | 25349 | 7627 |
| RPL9_+_39460483.23-P1P2_00: sgRNA targeting RPL9, GGATGTTTCTGTGCTCGTGG, SEQ ID NO: 5 (listed as DNA, chemistry not fully specified) | 1141 | 1014 | 10355 |
